Assay results taken from ChEMBL document CHEMBL6121016, “Design, Synthesis, and Biological Evaluation of 1,3,4-Thiadiazole Derivatives as Novel Potent Peptide Deformylase Inhibitors for Combating Drug-Resistant Gram-Positive and -Negative Bacteria” (J Med Chem, 2025).
In brackets after ≈: the same amount, converted by molar mass. Activity calls are given as the source filed them. No cut-off for these calls is given here.

Tests used:
Acinetobacter baumannii [1] = assay: Antibacterial activity against Acinetobacter baumannii Bio 53272 after 16 to 18 hrs by broth microdilution method; type: functional; conditions: time 16-18 hrs
Klebsiella pneumoniae [2] = assay: Antibacterial activity against Klebsiella pneumoniae CICC 21611 after 16 to 18 hrs by broth microdilution method; type: functional; conditions: time 16-18 hrs
Acinetobacter baumannii [3] = assay: Antibacterial activity against Acinetobacter baumannii Bio 24253 after 16 to 18 hrs by broth microdilution method; type: functional; conditions: time 16-18 hrs
[4] = Acute toxicity in KM mouse infected with drug-resistant Acinetobacter baumannii assessed as pathological changes in lungs at 40 mg/kg by HE staining based analysis; type: organism-based; conditions: in vivo
[5] = Aqueous solubility of compound at 0.9% aqueous NaCl solution incubated for 2 hrs by UV spectrophotometry analysis; type: physicochemical
Staphylococcus aureus [6] = assay: Induction of morphological changes in methicillin-resistant Staphylococcus aureus RB 3641 assessed as disintegration of cells at 8 times of MIC incubated for 4 hrs by Field emission scanning electron microscopic analysis; type: functional, organism-based
Acinetobacter baumannii [7] = assay: Antibacterial activity against drug-resistant Acinetobacter baumannii Bio 53272 after 16 to 18 hrs by broth microdilution method; type: functional; conditions: time 16-18 hrs
Acinetobacter baumannii [8] = assay: Induction of intracellular ROS production in Acinetobacter baumannii Bio 53272 cells assessed as membrane potential imbalance incubated for 12 hrs by DCFH-DA probe based ROS assay; type: functional, organism-based
Escherichia coli = assay: Potency index, ratio of LBM415 MIC to test compound MIC for antibacterial activity against Escherichia coli after 16 to 18 hrs by broth microdilution method; type: functional; conditions: time 16-18 hrs
Cell membrane [9] = assay: Induction of cell membrane disruption in Acinetobacter baumannii assessed as outer membrane integrity by NucGreen/EthD-III costain fluorescent assay; type: subcellular
Cell membrane [10] = assay: Induction of cell membrane disruption in methicillin-resistant Staphylococcus aureus assessed as […] integrity by NucGreen/EthD-III costain fluorescent assay; type: subcellular
Staphylococcus aureus [11] = assay: Antibacterial activity against methicillin-resistant Staphylococcus aureus ATCC 43300 after 16 to 18 hrs by broth microdilution method; type: functional; conditions: time 16-18 hrs
Klebsiella pneumoniae [12] = assay: Antibacterial activity against Klebsiella pneumoniae CICC 20093 after 16 to 18 hrs by broth microdilution method; type: functional; conditions: time 16-18 hrs

CCCC[C@H](CN(O)C=O)C(=O)N1CCC[C@H]1c1nnc(-c2cccs2)s1
MIC (Acinetobacter baumannii [1]): 0.5 µg/mL (≈ 1.22 µM)
MIC (Klebsiella pneumoniae [2]): 8 µg/mL (≈ 19.6 µM)
MIC (Acinetobacter baumannii [3]): 4 µg/mL (≈ 9.79 µM)
Activity [4]: Non-toxic
solubility at 2 h [5]: 2600 µg/mL (≈ 6360 µM)
Activity (Staphylococcus aureus [6]): Active
MIC (Acinetobacter baumannii [7]): 0.5 µg/mL (≈ 1.22 µM)
Activity (Acinetobacter baumannii [8]): Active
Ratio (Escherichia coli): >16
Activity (Cell membrane [9]): Active
Activity (Cell membrane [10]): Active
MIC (Staphylococcus aureus [11]): 0.125 µg/mL (≈ 0.306 µM)
MIC (Klebsiella pneumoniae [12]): 16 µg/mL (≈ 39.2 µM)
